Among the data in patent publication US20260234165A1, “MACROCYCLIC COMPOUNDS, PREPARATION METHOD THEREFOR, AND USE THEREOF” (GENFLEET THERAPEUTICS (SHANGHAI) INC., priority 2004, published 2026) are IC50 values, retold here.

Where two headings read alike, the source gives them in different places.

Common to all, as to type: cell-based, human
The test system of assay [1] is p-ERK in NCI-H441 cells (KRAS G12V mutation). The assay is described as follows: Cell p-ERK assay (HTRF) in NCI-H441 cells. As to conditions: NCI-H441 cells, 3 h compound incubation, HTRF p-ERK T202/Y204, read-out: H441 p-ERK IC50. In short, it runs like this:
(§1)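 In this cellular format, endogenous KRAS-mutant lines grown in RPMI-1640 plus 10% FBS received graded compound concentrations for 3 h at 37 °C. Lysates were incubated 4 h with the phospho-T202/Y204 ERK HTRF antibody pair, and percent inhibition relative to DMSO and blank wells was curve-fitted to give IC50.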
(In general: In TR-FRET formats the signal depends on donor and acceptor labels being close together.)

The subject of assay [2] is p-ERK in AsPC-1 cells (KRAS G12D mutation). As to the kind of experiment: Cell p-ERK assay (HTRF) in AsPC-1 cells. As to conditions: AsPC-1 cells, 3 h compound incubation, HTRF p-ERK T202/Y204, read-out: AsPC-1 p-ERK IC50. The procedure, abridged: as §1
For assay [3], the system named is AsPC-1 cells (KRAS G12D mutation). The assay is described as follows: 3D cell proliferation assay (CellTiter Glo-3D), AsPC-1. As to conditions: medium with 2% FBS, read-out: AsPC-1 AP IC50. In short, it runs like this: (§2)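 Proliferation of the KRAS-mutant lines NCI-H441 and AsPC-1 is measured over 5 days of compound treatment in medium with 2% FBS. Inhibition is computed from luminescence relative to DMSO and cell-free controls, and IC50 comes from a four-parameter curve.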

Assay [4] concerns NCI-H441 cells. As to the kind of experiment: 3D cell proliferation assay (CellTiter Glo-3D), NCI-H441. As to conditions: medium with 2% FBS, read-out: H441 AP IC50. In short, it runs like this: as §2
On the technique in general: Cellular ATP, detected with luciferase, serves as a proxy for viable cell number.

[5] abbreviates: Homo sapiens, ASPC1, 3D cell proliferation (CellTiter Glo-3D).
Where [6] appears, read: Homo sapiens, NCI-H441, 3D cell proliferation (CellTiter Glo-3D).
Setting [7] is: 3D cell proliferation (CellTiter Glo-3D).

Broadly, the IC50 is the concentration that inhibits the measured activity by half. Take `CCc1ccn2c(N[C@H]3Cc4nc(cs4)-c4ccc5c(c4)c(c(-c4cc(N6CCN(C)CC6)cnc4[C@H](C)OC)n5CC)CC(C)(C)COC(=O)[C@@H]4CCCN(N4)C3=O)nnc2c1` (atropisomer, axis not shown; (Ra)) [Compound Z662, (6^3S,4S,Z)-1^1-ethyl-4-((7-ethyl-[1,2,4]triazolo[4,3-a]pyridin-3-yl)amino)-(Ra)-1^2-(2-((S)-1-methoxyethyl)-5-(4-methylpiperazin-yl)pyridin-3-yl)-10,10-dimethyl-6^1,6^2,6^3,6^4,6^5,6^6-hexahydro-1^1H-8-oxa-2(4,2)-thiazola-1(5,3)-indola-6(1,3)-pyridazinacycloundecaphane-5,7-dione]: the IC50 in assay [1] (Homo sapiens, NCI-H441, 3 h) came out at 5.4 nM; in assay [2] (Homo sapiens, ASPC1, 3 h) it was 34.4 nM; in assay [3] (setting [5]), 67 nM; in assay [4] (setting [6]) it was 11 nM.

Take `CCn1c(-c2cc(N3CCN(C)CC3)cnc2[C@H](C)OC)c2c3cc(ccc31)-c1csc(n1)C[C@H](NC(=O)C(C)(C)F)C(=O)N1CCC[C@H](N1)C(=O)OCC(C)(C)C2` (single isomer, unassigned) [Compound Z5]: the IC50 in assay [1] is 4.24 nM; in assay [2], 2.81 nM; in assay [3] (setting [7]), 19.5 nM; in assay [4] (setting [7]), 12.3 nM.

`CCn1c(-c2cc(C#CCN3CCN(C)S(=O)(=O)CC3)cnc2[C@H](C)OC)c2c3cc(ccc31)-c1csc(n1)C[C@H](NC(=O)[C@H]1[C@H](C)[C@@H]1C)C(=O)N1CCC[C@H](N1)C(=O)OCC(C)(C)C2` [Compound Z847, (1r,2R,3S)—N-((6^3S,4S,Z)—1′-ethyl-(2-((S)-1-methoxyethyl)-5-(3-(2-methyl-1,1-dioxido-1,2,5-thiadiazepan-5-yl)prop-1-yn-1-yl)pyridin-3-yl)-10,10-dimethyl-5,7-dioxo-6^1,6^2,6^3,6^4,6^5,6^6-hexahydro-1^1H-8-oxa-2(4,2)-thiazola-1(5,3)-indola-6(1,3)-pyridazinacycloundecaphane-4-yl)-2,3-dimethylcyclopropane-1-carboxamide]: the IC50 came to 0.13 nM in assay [1] (Homo sapiens, NCI-H441, 3 h); 0.11 nM in assay [2] (Homo sapiens, ASPC1, 3 h); 0.13 nM in assay [3] (setting [5]); 0.29 nM in assay [4] (setting [6]).

For the molecule `CC[C@@H](C)C(=O)N[C@H]1Cc2nc(cs2)-c2ccc3c(c2)c(c(-c2cc(OCCN4CCS(=O)(=O)CC4)cnc2[C@H](C)OC)n3CC)CC(C)(C)COC(=O)[C@@H]2CCCN(N2)C1=O` (atropisomer, axis not shown; (Ra)) [Compound Z610, (2R)—N-((6^3S,4S,Z)—(Ra)-1^2-(5-(2-(1,1-dioxidothiomorpholino)ethoxy)-2-((S)-1-methoxyethyl)pyridin-3-yl)-1^1-ethyl-10,10-dimethyl-5,7-dioxo-6^1,6^2,6^3,6^4,6^5,6^6-hexahydro-1^1H-8-oxa-2(4,2)-thiazola-1(5,3)-indola-6(1,3)-pyridazinacycloundecaphane-4-yl)-2-methylbutanamide], the IC50 in assay [1] (Homo sapiens, NCI-H441, 3 h) came out at 0.57 nM; in assay [2] (Homo sapiens, ASPC1, 3 h), 0.71 nM; in assay [3] (setting [5]) it was 1.37 nM; in assay [4] (setting [6]), 0.32 nM.

`CCn1c(-c2cc(OCC3(N4CCCOCC4)CC3)cnc2[C@H](C)OC)c2c3cc(ccc31)-c1csc(n1)C[C@H](NC(=O)[C@H]1[C@H](C)[C@@H]1C)C(=O)N1CCC[C@H](N1)C(=O)OCC1(CC1)C2` [Compound Z329, (1r,2R,3S)—N-((3′S,4′S,Z)-2′-(5-((1-(1,4-oxazepan-4-yl)cyclopropyl)methoxy)-2-((S)-1-methoxyethyl)pyridin-3-yl)-1′-ethyl-5′,7′-dioxospiro[cyclopropane-1,10′-8-oxa-2(4,2)-thiazola-1(5,3)-indola-6(1,3)-pyridazinacycloundecaphan]-4′-yl)-2,3-dimethylcyclopropane-1-carboxamide]: the IC50 in assay [1] turned out to be 8.74 nM; in assay [2], 15.7 nM; in assay [3] (setting [7]), 51.9 nM; in assay [4] (setting [7]) it was 23.1 nM.

Regarding `CCn1c(-c2cc(OCCN3CCS(=O)(=O)CC3)cnc2[C@H](C)OC)c2c3cc(ccc31)-c1csc(n1)C[C@H](NC(=O)[C@H]1C[C@@H]1C)C(=O)N1CCC[C@H](N1)C(=O)OCC(C)(C)C2` (atropisomer, axis not shown; (Ra)) [Compound Z605], the IC50 came to 0.3 nM in assay [1], 0.6 nM in assay [2], 0.5 nM in assay [3] (setting [7]) and 0.26 nM in assay [4] (setting [7]).

`CCn1c(-c2cc(N3CCN(C)CC3)cnc2[C@H](C)OC)c2c3cc(ccc31)-c1csc(n1)C[C@H](NC(=O)C(C)(C)F)C(=O)N1CCC[C@H](N1)C(=O)OCC(C)(C)C2` (atropisomer, axis not shown; (Ra)) [Compound Z66, N-((6^3S,4S,Z)-1^1-ethyl-(Ra)-1^2-(2-((S)-1-methoxyethyl)-5-(4-(methyl-d3)piperazin-1-yl)pyridin-3-yl)-10,10-dimethyl-5,7-dioxa-6^1,6^2,6^3,6^4,6^5,6^6-hexahydro-1^1H-8-oxa-2(4,2)-thiazola-1(5,3)-indola-6(1,3)-pyridazinacycloundecaphane-4-yl)-2-fluoro-2-methylpropanamide]: the half-inhibitory concentration (IC50) in assay [1] turned out to be 4.26 nM; in assay [2] it was 2.72 nM; in assay [3] (setting [7]), 20.9 nM; in assay [4] (setting [7]) it was 5.69 nM.

For the molecule `CCn1c(-c2cc(C#CCN3CC(OC)C3)cnc2[C@H](C)OC)c2c3cc(ccc31)-c1csc(n1)C[C@H](NC(=O)[C@H]1[C@H](C)[C@@H]1C)C(=O)N1CCC[C@H](N1)C(=O)OCC(C)(C)C2` (atropisomer, axis not shown; (Ra)) [Compound Z945, (1r,2R,3S)—N-((6^3S,4S,Z)-1^1-ethyl-1^2-(5-(3-(3-methoxyazetidin-1-yl)prop-1-yn-1-yl)-(Ra)-2-((S)-1-methoxyethyl)pyridin-3-yl)-10,10-dimethyl-5,7-dioxo-6^1,6^2,6^3,6^4,6^5,6^6-hexahydro-1^1H-8-oxa-2(4,2)-thiazola-1(5,3)-indola-6(1,3)-pyridazinacycloundecaphane-4-yl)-2,3-dimethylcyclopropane-1-carboxamide], the IC50 in assay [1] (Homo sapiens, NCI-H441, 3 h) was determined as 0.18 nM; in assay [2] (Homo sapiens, ASPC1, 3 h) it was 0.28 nM; in assay [3] (setting [5]) it was 0.23 nM; in assay [4] (setting [6]) it was 0.23 nM.

`CCn1c(-c2cc(C#C[C@@H]3CCCN3C)cnc2[C@H](C)OC)c2c3cc(ccc31)-c1csc(n1)C[C@H](NC(=O)[C@H]1[C@H](C)[C@@H]1C)C(=O)N1CCC[C@H](N1)C(=O)OCC(C)(C)C2` (atropisomer, axis not shown; (Ra)) [Compound Z598, (1r,2R,3S)—N-((6^3S,4S,Z)—(Ra)-1^1-ethyl-12-(2-((S)-1-methoxyethyl)-5-(((S)-1-methylpyrrolidin-2-yl)ethynyl)pyridin-3-yl)-10,10-dimethyl-5,7-dioxo-6^1,6^2,6^3,6^4,6^5,6^6-hexahydro-1^1H-8-oxa-2(4,2)-thiazola-1(5,3)-indola-6(1,3)-pyridazinacycloundecaphane-4-yl)-2,3-dimethylcyclopropane-1-carboxamide]: the IC50 in assay [1] is 0.58 nM; in assay [2] it was 0.8 nM; in assay [3] (setting [7]) it was 0.62 nM; in assay [4] (setting [7]), 0.65 nM.

On to `CO[C@@H](C)c1ncc(OCCN2CCOC3(CC3)C2)cc1-c1c2c3cc(ccc3n1C(C)C)-c1csc(n1)C[C@H](NC(=O)[C@H]1[C@H](C)[C@@H]1C)C(=O)N1CCC[C@H](N1)C(=O)OCC1(CC1)C2` (atropisomer, axis not shown; (Ra)) [Compound Z462, (1r,2R,3S)—N-((3′S,4′S,Z)-2′-(5-(2-(4-oxa-7-azaspiro[2,5]octan-7-yl)ethoxy)-(Ra)-2-((S)-1-methoxyethyl)pyridin-3-yl)-1′-isopropyl 5′,7′-dioxospiro[cyclopropane-1,10′-8-oxa-2(4,2)-thiazola-1(5,3)-indola-6(1,3)-pyridazinacycloundecaphan]-4′-yl)-2,3-dimethylcyclopropane-1-carboxamide], for which the IC50 in assay [1] (Homo sapiens, NCI-H441, 3 h) worked out at 1.12 nM; in assay [2] (Homo sapiens, ASPC1, 3 h) it was 1.6 nM; in assay [3] (setting [5]), 2.72 nM; in assay [4] (setting [6]), 1.37 nM.

Regarding `CCn1c(-c2cc(C#CC(C)(C)N3CCC(OC)CC3)cnc2[C@H](C)OC)c2c3cc(ccc31)-c1csc(n1)C[C@H](NC(=O)[C@H]1[C@H](C)[C@@H]1C)C(=O)N1CCC[C@H](N1)C(=O)OCC(C)(C)C2` (atropisomer, axis not shown; (Ra)) [Compound Z628-1, (1r,2R,3S)—N-((6^3S,4S,Z)-1^1-ethyl-(Ra)-1^2-(2-((S)-1-methoxyethyl)-5-(3-(4-methoxypiperidin-1-yl)-3-methylbut-1-yn-1-yl)pyridin-3-yl)-10,10-dimethyl-5,7-dioxo-6^1,6^2,6^3,6^4,6^5,6^6hexahydro-1^1H-8-oxa-2(4,2)-thiazola-1(5,3)-indola-6(1,3)-pyridazinacycloundecaphane-4-yl)-2,3-dimethylcyclopropane-1-carboxamide], the IC50 was found to be 0.35 nM in assay [1], 0.31 nM in assay [2], 0.62 nM in assay [3] (setting [7]) and 0.34 nM in assay [4] (setting [7]).
